“Also recorded” adds a separate entry of the source.
Key:
[1] = system: chronic constriction injury (CCI) neuropathic pain model; test: Reversal of allodynia (von Frey) in CCI rats, 4 days of dosing, Example 4; format: in vivo, rat; details: i.p. once a day for 4 days from day 14; tested 3 hrs after dosing; ultra low to high dose; vs saline
Experimental: Allodynia was induced in a group of (male, Sprague-Dawley) rats essentially as described above in Example 3. Prior to surgery, animals were tested to establish their baseline von Frey scores. Any animal with a Log absolute von Frey score lower than 4.65 on either leg was excluded from the study. CCI surgery was performed on the left sciatic nerve as detailed above. On days 4 and 14 post-surgery, the animals were tested using the von Frey test of mechanical allodynia to ensure that allodynia was established.
Beginning at about day 14 post-surgery, the animals were dosed once a day for 4 days. Compounds II-25, II-93, II-62, and III-2 were tested. All drugs were administered intraperitoneally (i.p.). Allodynia was tested prior to and again 3 hrs after each dosing. Drug administration and testing was done blindly. After the 4th day of dosing, the animals were sacrificed, cardiac perfusion was performed, and spinal cords were removed and stored for further analysis.
All data were analyzed using 2-way ANOVA's with Bonferroni's post hoc test compared to saline unless otherwise stated. Area under curve (AUC) was calculated using Graphpad Prism and comparisons were made using 1-way ANOVA with Dunnet's post hoc test.

[2] = system: chronic constriction injury (CCI) neuropathic pain model; test: Mechanical allodynia (Von Frey) in chronic constriction injury (Bennett) model, Example 3; format: in vivo, rat; details: Day 14 post-surgery, 30 and 90 min post-dosing, vs vehicle; for Mechanical allodynia (50% allodynia threshold), left (affected) paw: (+)-naloxone.HCl 66.7 mg/kg S.C., Gabapentin 100 mg/kg I.P.
Text: Neuropathic pain affects approximately 1% of the U.S. population and is extremely difficult to manage. Usually the pain is chronic, severe, and fails to respond to traditional analgesic drugs. Fortunately, one of the most widely used animal models for neuropathic pain closely mimics the pain endured by patients. In this model, termed the chronic constriction injury (CCI) or Bennett model, four closely spaced ligatures tied loosely around the sciatic nerve of a rat cause demyelination of the nerve, resulting in spontaneous pain, such as prolonged paw elevation and licking of the ligated paw. Induced pain in the nerve-injured limb can be measured using Von Frey filaments, applied to the plantar surface of the paw to test for responses to non-noxious tactile stimulation. The onset of this heightened mechanical allodynia is quite rapid and it persists for 2-3 months.
In this example, the CCI ligation was performed on the left sciatic nerve in three groups of rats. Von Frey testing of mechanical allodynia was performed on both paws on Day 14 to determine the analgesic efficacy of the test agent. The testing was performed pre-dosing, and at 30 and 90 minutes post-dosing.
The animals were allocated to treatment groups based on their baseline Von Frey data, measured prior to surgery. The mechanical allodynia scores for each group were reviewed to ensure that the mean values and standard deviation satisfied the assumption of homogeneity. Thirty-one (31) animals were used on the study. Thirty (30) animals were initially allocated to treatment groups, and the remaining […] animals were held as spares. One spare was then used to replace an animal that died during surgery. Body weights were taken one day after arrival, prior to surgery and weekly thereafter. On Day 14, after the final behavioral testing, the animals were euthanized by carbon dioxide asphyxiation. No necropsy was performed nor tissues collected.
All surgeries were performed under aseptic conditions. Prior to surgery, the rats were sedated using inhaled Isoflurane anesthetic. The left leg was shaved and prepped. The common sciatic nerve was exposed and freed from adherent tissue at mid-thigh by separating the muscle (biceps femoris) by blunt dissection. Proximal to the sciatic nerve's trifurcation; approximately 7 mm of nerve was freed from the adhering tissue. Four ligatures, approximately 1 mm apart, were tied loosely around the nerve using 6.0 chromic catgut. Each of the sutures was tied loosely with a square knot around the sciatic nerve. A brief twitch in the muscle surrounding the exposure was an indicator of the desired degree of constriction. The site was then closed using the appropriate suture material. Post-operative care and observations were carried out until the animal recovered consciousness.
The animals underwent a series of behavioral testing for neuropathic pain assessment. A Von Frey test of mechanical allodynia was performed on both hind paws prior to surgery to achieve a baseline measurement for randomization and then following surgery on Day 14 (test article efficacy) according to Table 4.
Twice prior to surgery, the animals were acclimated to the allodynia apparatus. This habituated the rats to the testing devices to familiarize them with the apparatus so they were calm at the time of testing. […] Animals were first habituated to the testing chamber so that they were calm enough for their pain threshold to be assessed. […]

[3] = system: Experimental Autoimmune Encephalomyelitis (EAE); details: bid for 20 days; Cmpd II-98 5 mg/kg sc, others 20 mg/kg sc, Prednisolone 4.5 mg/kg ip; vs vehicle control
TLR9 = test: IFN-β up-regulation in plasmacytoid dendritic cells by TLR9 agonist ODN2395; format: cell-based
Text: TLR9 signalling involves activation of NF-κB and IRF downstream pathways. The (+)-morphinan inhibited both of these pathways following activation of TLR9 (but not activation of TLR4 or other receptors). The type C TLR9 agonist, ODN2395, and the TL4 agonist, LPS, both induce up-regulation of IL-1β in peritoneal macrophages via activation of NF-κB.

[4] = system: hepatic IR injury in steatotic livers; test: IR injury in high fat diet (HFD) steatotic liver model; format: in vivo, mouse
Text: In addition to the scarcity of liver donations, many of the donor livers have a significant degree of steatosis which is known to increase IR injury. Thus, many otherwise healthy, but steatotic, livers are rejected for transplantation. If a drug can be shown to reduce IR injury in steatotic livers it would allow use of steatotic livers for transplantation and increase the total number of liver transplants that could be performed. To test this, mice were placed on a high fat diet (HFD) for 12 weeks to induce hepatic steatosis, which was followed by IR injury. For this, mice were subjected to hepatic ischemia by occluding the vasculature supplying the left and median lobes (ischemic lobes) of the liver by a microvascular clamp. After 1 hour of ischemia, the blood supply was resumed (reperfusion). Some animals were sacrificed after 3 hour of reperfusion, and others after 12 hours or reperfusion. The experimental group received Cmpd II-78 at a dose of 80 mg/kg given intraperitoneally 1 hour prior to starting ischemia. Cellular and molecular responses were assessed essentially as described above in Example 9.

Row | Structure (SMILES) | Reversal of allodynia (von Frey) [1] | Mechanical allodynia (50% allodynia threshold), left (affected) paw ([2]; listed as (+)-naloxone) | Mechanical allodynia (50% allodynia threshold), left (affected) paw ([2]; listed as (+)-naloxone.HCl) | Mechanical allodynia (50% allodynia threshold), right (unaffected) paw [2] | EAE clinical scores [3] | IFN-β mRNA up-regulation (IRF pathway) (TLR9) | IR-induced activation of MAP kinases (western blotting), steatotic livers ([4]; HFD) | IR-induced cleavage and activation of TLR9 (western blotting), steatotic livers ([4]; HFD) | Histological Suzuki score (hepatic IR injury), steatotic livers ([4]; HFD 12 weeks, 80 mg/kg ip 1 hour prior to ischemia, 3 and 12 hours of reperfusion) | IR-induced serum ALT levels, steatotic livers ([4]; HFD, 80 mg/kg ip, 3 and 12 hours of reperfusion) | Anti-inflammatory molecule IL-1Ra mRNA, steatotic livers ([4]; HFD, 12 hours of reperfusion) | IR-induced pro-inflammatory cytokines (IL-1β, MCP-1, NLPR3 mRNA), steatotic livers ([4]; HFD, 12 hours of reperfusion)
1 | C=CCN1CC[C@]23c4c5ccc(O)c4O[C@H]2C(=O)CC[C@]3(O)[C@H]1C5 [(+)-Naloxone, (+)-naloxone] | not effective at reversing allodynia | effective at significantly reducing the allodynia | effective analgesic for reversing neuropathic pain | no significant group differences |  |  |  |  |  |  |  | 
2 | CN[C@@H]1CC[C@]2(O)[C@@H]3Cc4ccc(O)c5c4[C@]2(CCN3CC2CC2)[C@@H]1O5 [II-78] |  |  |  |  | did not improve EAE | this activation was inhibited; also recorded: reduced both NFκB- and IRF-dependent pathways downstream of TLR9 | reduction of IR-induced activation of MAP kinases | reduction of IR-induced cleavage and activation of LTR9 | reduced hepatic ischemic reperfusion (IR) injury in steatotic livers | reduced IR-induced serum alanine transaminase (ALT) levels in steatotic livers | increased an anti-inflammatory molecule | reduced IR-induced pro-inflammatory cytokines
